After the bases stand the sugars from the 5' end (letter, count) and the backbone: PS all phosphorothioate, else s phosphorothioate and o phosphodiester by linkage. Methylation of C is not given here. e = 2'-O-(2-methoxyethyl) (MOE); k = constrained ethyl (cEt); d = 2'-deoxy (DNA); m = 2'-O-methyl
Target: HSD17B13
Conditions: ASO, HepaRG

Sequence	target mRNA inhibition (1 µM) [%]	also measured
GAGTTAGGGAGCCAGC (sugars k3 d10 k3, PS)	39	–
GAGTTATACAGAAGAC (sugars k3 d10 k3, PS)	61	–
GAGTTGCACCGTTTTG (sugars kkdddddddddkekek, PS)	61	–
GATAAAGCTGCCTGCT (sugars k3 d10 k3, PS)	42	–
GATACCCAGGTTGCTT (sugars k3 d10 k3, PS)	53	–
GATACTGGTGGACAAG (sugars k3 d10 k3, PS)	13	–
GATACTTACCAATATG (sugars k3 d10 k3, PS)	22	–
GATATGAGTAAAGATC (sugars k3 d10 k3, PS)	23	–
GATATTCTGTGGCATG (sugars k3 d10 k3, PS)	46	–
GATATTGATATACGAT (sugars k3 d10 k3, PS)	2	–
GATATTGTTTAGCTGA (sugars k3 d10 k3, PS)	59	–
GATCCATATTCCCTGA (sugars k3 d10 k3, PS)	74	target mRNA inhibition (0.02 µM): 0%; target mRNA inhibition (0.078 µM): 0%; target mRNA inhibition (0.313 µM): 21%; target mRNA inhibition (1.25 µM): 40%; target mRNA inhibition (5 µM): 60%
GATCGGCTGGATATAC (sugars k3 d10 k3, PS)	7	–
GATCTCTTAGCTGTGC (sugars k3 d9 k3 e1, PS)	70	–
GATCUCTTAGCTGTGC (sugars k3 d1 m1 d8 k3, PS)	65	–
GATGATTCTGACTCAT (sugars k3 d10 k3, PS)	55	–
GATGTGGCCATGATTT (sugars k3 d10 k3, PS)	9	–
GATTACCCCTGGCTTT (sugars k3 d10 k3, PS)	31	–
GATTAGTCTTGATGTA (sugars k3 d1 m1 d8 k3, PS)	45	–
GATTAGTTAACCTTTT (sugars k3 d10 k3, PS)	58	–
GATTATTATGTGATTG (sugars k3 d10 k3, PS)	39	–
GATTGAATTCACTATC (sugars k3 d10 k3, PS)	0	–
GATTGGAATGCTACTT (sugars k3 d1 m1 d8 k3, PS)	48	–

Sequence	target mRNA inhibition (1 µM) [%]	also measured
GATTTAAAATAGAGTC (sugars k3 d10 k3, PS)	46	–
GATTTCTAGGATGATG (sugars k3 d10 k3, PS)	57	–
GCAAAAGGAGCCAGTT (sugars k3 d10 k3, PS)	57	–
GCAAAGTTAATAGGAC (sugars k3 d10 k3, PS)	52	–
GCAAAGTTTGGGCAGA (sugars k3 d10 k3, PS)	50	–
GCAAATACAGCAGTAC (sugars k3 d10 k3, PS)	56	–
GCAAGCCAACAGAGAG (sugars k3 d1 m1 d8 k3, PS)	26	–
GCAATAGTACTATAGT (sugars k3 d10 k3, PS)	39	–
GCACATCATGTTTTGC (sugars k3 d10 k3, PS)	44	–
GCAGAAATTCACCTTG (sugars k3 d1 m1 d8 k3, PS)	54	–
GCAGAAATTCACCTTG (sugars k3 d9 k3 e1, PS)	62	–
GCAGAATATATACTAG (sugars k3 d10 k3, PS)	55	–
GCAGAGACAGTAGATT (sugars k3 d10 k3, PS)	63	–
GCAGATTATTATGTGA (sugars k3 d10 k3, PS)	59	–
GCAGTAAAGTGCTAAG (sugars k3 d10 k3, PS)	83	target mRNA inhibition (0.02 µM): 44%; target mRNA inhibition (0.078 µM): 37%; target mRNA inhibition (0.313 µM): 62%; target mRNA inhibition (1.25 µM): 78%; target mRNA inhibition (5 µM): 91%
GCATAAGTTACCAGAG (sugars k3 d10 k3, PS)	79	target mRNA inhibition (0.02 µM): 0%; target mRNA inhibition (0.078 µM): 0%; target mRNA inhibition (0.313 µM): 40%; target mRNA inhibition (1.25 µM): 51%; target mRNA inhibition (5 µM): 85%
GCATATTCATTTGGCC (sugars k3 d10 k3, PS)	6	–
GCATCAAGACATTCTA (sugars k3 d1 m1 d8 k3, PS)	51	–
GCATCAAGACATTCTA (sugars k3 d9 k3 e1, PS)	84	target mRNA inhibition (0.02 µM): 0%; target mRNA inhibition (0.078 µM): 8%; target mRNA inhibition (0.313 µM): 13%; target mRNA inhibition (1.25 µM): 31%; target mRNA inhibition (5 µM): 74%
GCATGGCTACAGATTG (sugars k3 d1 m1 d8 k3, PS)	76	target mRNA inhibition (0.02 µM): 2%; target mRNA inhibition (0.078 µM): 2%; target mRNA inhibition (0.313 µM): 31%; target mRNA inhibition (1.25 µM): 61%; target mRNA inhibition (5 µM): 78%
GCATGGCTACAGATTG (sugars k3 d10 k3, PS)	56	–
GCATGGCTACAGATTG (sugars kkdddddddddkekek, PS)	41	–
GCATTAATGCCACCCT (sugars k3 d10 k3, PS)	36	–

Sequence	target mRNA inhibition (1 µM) [%]	also measured
GCATTCATCAGATGTT (sugars k3 d10 k3, PS)	89	target mRNA inhibition (0.02 µM): 3%; target mRNA inhibition (0.078 µM): 24%; target mRNA inhibition (0.313 µM): 66%; target mRNA inhibition (1.25 µM): 86%; target mRNA inhibition (5 µM): 91%
GCCAAAAATCAGCCAC (sugars k3 d10 k3, PS)	11	–
GCCAACACTAATCTCA (sugars k3 d10 k3, PS)	40	–
GCCACTGGATGGATTT (sugars k3 d10 k3, PS)	36	–
GCCACTGTGACGATGT (sugars k3 d10 k3, PS)	9	–
GCCAGTACAGTTCCTT (sugars k3 d10 k3, PS)	61	–
GCCTAAAATTGTCTAA (sugars k3 d10 k3, PS)	32	–
GCCTAAACATTTCTCA (sugars k3 d10 k3, PS)	2	–
GCCTAAAGGAGATCTG (sugars k3 d10 k3, PS)	67	–
GCCTTACCAGAATTTA (sugars k3 d10 k3, PS)	75	–
GCGATAGATCTCTTCT (sugars k3 d10 k3, PS)	24	–
GCTAAAATGGTCATCT (sugars k3 d10 k3, PS)	40	–
GCTAAGTATACTTTCT (sugars k3 d10 k3, PS)	37	–
GCTAATGTATGAGGTC (sugars k3 d10 k3, PS)	78	target mRNA inhibition (0.02 µM): 0%; target mRNA inhibition (0.078 µM): 0%; target mRNA inhibition (0.313 µM): 34%; target mRNA inhibition (1.25 µM): 64%; target mRNA inhibition (5 µM): 82%
GCTATAGGTAGCTAAT (sugars k3 d10 k3, PS)	20	–
GCTCCAGTAATGAGAA (sugars k3 d10 k3, PS)	34	–
GCTGAAACTGCTGATT (sugars k3 d10 k3, PS)	38	–
GCTGAGAGTTCTACAC (sugars k3 d10 k3, PS)	45	–
GCTGATTAATCTTGAT (sugars k3 d10 k3, PS)	48	–
GCTGCTAGTGCCAAAC (sugars k3 d10 k3, PS)	67	–
GCTGCTATTTAGGGCA (sugars k3 d10 k3, PS)	53	–
GCTGTAATTAGGAAGA (sugars k3 d10 k3, PS)	24	–

— the OligoGym collection
